One may read the MIC as the least concentration at which growth counts as inhibited.

The values below come from paper PMC3466204 (PLoS ONE, 2012).

One assay has as its system Lactococcus lactis HP. The assay can be described thus: Agarose-based assay of cell-free supernatants of S29X producing strains. Summed up: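 Deferred antagonism in 1% agarose underlay (10 mM sodium phosphate, pH 7.4) seeded with mid-log indicator bacteria at 2×10^7 CFU/mL. Cell-free supernatant or purified peptide placed in 4.6 mm wells, held 3 h at 30 °C (L. lactis), 37 °C (Gram-positives) or RT (Gram-negatives). Plates were then overlaid with GM17 or LB agarose and incubated overnight.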

For the next assay, the system named is L. lactis HP. The assay can be described thus: Broth MIC, Gram positive. The format is cell-based. The following applies: broth microtitre, BSA pre-treated plates, 10^5 cfu ml^−1, 2-fold dilutions from 500 nM, 16 h, purified peptide, mean of triplicate assays. The procedure:
(§1) Minimum inhibitory concentration determinations for Gram positive organisms were carried out in triplicate in microtitre plates (Sarstedt). 96 well microtitre plates were pre-treated with bovine serum albumin (BSA) prior to addition of the peptides. Briefly, to each well of the microtitre plate 200 µL of phosphate buffered saline (PBS) containing 1% (w/v) bovine serum albumin (PBS/BSA) was added and incubated at 37°C for 30 min. The wells were washed with 200 µL PBS and allowed to dry. Target strains were grown overnight in the appropriate conditions and medium, subcultured into fresh broth and allowed to grow to an OD600 of ∼0.5, diluted to a final concentration of 10^5 cfu ml^−1 in a volume of 0.2 ml. Wild type nisin and nisin mutant peptides were adjusted to a 10 µM (S. mitis, B. cereus), 7.5 µM (L. monocytogenes), 5 µM (hVISA) 2.5 µM (MRSA, E. durans), or 500 nM (L. lactis strains) starting concentration and 2-fold serial dilutions of each peptide were added to the target strain.

For a further assay, the system named is L. lactis MG1363. Description: Broth MIC, Gram positive. It counts as cell-based. The following applies: broth microtitre, BSA pre-treated plates, 10^5 cfu ml^−1, 2-fold dilutions from 500 nM, 16 h, purified peptide, mean of triplicate assays. How it is done:
as §1

The next assay deals with L. monocytogenes 10403S. Description: Broth MIC, Gram positive. It counts as cell-based. The following applies: broth microtitre, BSA pre-treated plates, 10^5 cfu ml^−1, 2-fold dilutions from 7.5 µM, 16 h 37°C, purified peptide, mean of triplicate assays. The procedure:
as §1

The subject of the next assay is L. monocytogenes LO28. Description: Broth MIC, Gram positive. It counts as cell-based. The settings on record: broth microtitre, BSA pre-treated plates, 10^5 cfu ml^−1, 2-fold dilutions from 7.5 µM, 16 h 37°C, purified peptide, mean of triplicate assays. How it is done: as §1
The subject of another assay is S. aureus RF122. Description: Broth MIC, Gram positive. It counts as cell-based. The settings on record: broth microtitre, BSA pre-treated plates, 10^5 cfu ml^−1, 2-fold dilutions, 16 h 37°C, purified peptide, mean of triplicate assays. How it is done: as §1
Assay [1] concerns ST 528 (Methicillin resistant S. aureus). Description: Broth MIC, Gram positive. The format is cell-based. The settings on record: broth microtitre, BSA pre-treated plates, 10^5 cfu ml^−1, 2-fold dilutions from 2.5 µM, 16 h 37°C, purified peptide, mean of triplicate assays. How it is done: as §1
The subject of assay [2] is ST 530 (Methicillin resistant S. aureus). Description: Broth MIC, Gram positive. The format is cell-based. The settings on record: broth microtitre, BSA pre-treated plates, 10^5 cfu ml^−1, 2-fold dilutions from 2.5 µM, 16 h 37°C, purified peptide, mean of triplicate assays. The procedure:
as §1

The test system of assay [3] is hVISA 32679 (heterogenous Vancomycin-intermediate S. aureus). The assay can be described thus: Broth MIC, Gram positive. The format is cell-based. The following applies: broth microtitre, BSA pre-treated plates, 10^5 cfu ml^−1, 2-fold dilutions from 5 µM, 16 h 37°C, purified peptide, mean of triplicate assays. The procedure:
as §1

A further assay has as its system B. cereus DPC 6088. The assay can be described thus: Broth MIC, Gram positive. The settings on record: broth microtitre, BSA pre-treated plates, 10^5 cfu ml^−1, 2-fold dilutions from 10 µM, 16 h 37°C, purified peptide, mean of triplicate assays. The format is cell-based, Bacillus cereus. How it is done: as §1
A further assay relates to B. cereus DPC 6089. Description: Broth MIC, Gram positive. The settings on record: broth microtitre, BSA pre-treated plates, 10^5 cfu ml^−1, 2-fold dilutions from 10 µM, 16 h 37°C, purified peptide, mean of triplicate assays. It counts as cell-based, Bacillus cereus. The procedure: as §1
For the next assay, the system named is E. durans 5133. Description: Broth MIC, Gram positive. The format is cell-based, Enterococcus durans. The following applies: broth microtitre, BSA pre-treated plates, 10^5 cfu ml^−1, 2-fold dilutions from 2.5 µM, 16 h 37°C, purified peptide, mean of triplicate assays. How it is done: as §1
Assay [4] relates to C. sakazakii DPC 6440. The assay can be described thus: Agarose gel diffusion assay, purified peptide. The settings on record: purified peptide 60 µM. It counts as cell-based, Cronobacter sakazakii. The procedure: (§2) Agarose-based deferred antagonism assays were carried out as follows: GM17/LB (0.03%) underlay was prepared with 10 mM sodium phosphate buffer (SPB) at pH 7.4 to which was added agarose (1% w/v agarose), autoclaved and cooled to 50°C. Bacteria grown to mid-logarithmic phase were harvested by centrifugation and washed with 10 mM SPB at pH 7.4. Bacteria were then added to 15 mls cooled underlay medium to reach a concentration of 2×10^7 colony-forming units (CFU)/mL. The inoculated medium was rapidly transferred into sterile Petri plates, allowed to solidify and dried. Wells (4.6 mm in diameter) were then made in the seeded plates. 10 µl volumes of cell-free supernatant from overnight nisin derivative producing cultures or resuspended purified peptides were then added to the wells and the plates incubated at 30°C (L. lactis) or 37°C (Gram positive strains) or RT (Gram negative strains) for 3 hours. Polymyxin B (Sigma Aldrich) was used at a concentration of 20 µg/ml. The plates were then overlaid with 15 mls of autoclaved double strength GM17 (L. lactis) or LB (Gram negatives) agarose (1% w/v agarose) overlay medium precooled to 50°C. The plates were then incubated overnight at the relevant temperature.

In assay [5] the test system is E. coli 0157-H7. Description: Agarose gel diffusion assay, purified peptide. The following applies: purified peptide 60 µM. It counts as cell-based. How it is done:
as §2

Assay [6] has as its system Salmonella enterica serovar Typhimurium UK1. The assay can be described thus: Agarose gel diffusion assay, purified peptide. The settings on record: purified peptide 60 µM. It counts as cell-based. How it is done: as §2
Assay [7] has as its system C. sakazakii DPC 6440. Description: Broth MIC, Gram negative. The format is cell-based, Cronobacter sakazakii. The following applies: cells washed in 10 mM SPB pH 7.4, 2×10^5 CFU/mL, 2 h RT with peptide, then double strength LB, RT overnight, mean of triplicate assays. How it is done:
(§3) Minimum inhibitory concentration determinations for Gram negative strains were carried out in triplicate in 96 well microtitre plates. Briefly, bacteria (E. coli, C. sakazakii and Salmonella) grown to mid-logarithmic phase were harvested by centrifugation, washed with 10 mM SPB at pH 7.4, and diluted to 2×10^5 colony-forming units (CFU)/mL in SPB. Nisin and nisin derivative peptides were resuspended in sterile HPLC water and 50 µL aliquots were added to wells containing 50 µL of 2×10^5 CFU of bacteria. Plates were incubated at RT for two hours with agitation. Double strength Luria–Bertani (LB) broth (100 µL) was added and the plates were incubated at RT overnight, the MIC was taken as the lowest concentration at which growth was inhibited.

In assay [8] the test system is E. coli 0157-H7. The assay can be described thus: Broth MIC, Gram negative. The format is cell-based. The settings on record: cells washed in 10 mM SPB pH 7.4, 2×10^5 CFU/mL, 2 h RT with peptide, then double strength LB, RT overnight, mean of triplicate assays. How it is done: as §3
In assay [9] the test system is C. sakazakii DPC 6440. The assay can be described thus: Kill curve analysis. The format is cell-based, Cronobacter sakazakii. The following applies: 33 mg/L purified peptide, 2×10^5 cfu ml^−1, 37°C for 1 hour. The procedure: Using purified peptide in each case, 10 mM sodium phosphate buffer washed C. sakazakii, E. coli and Salmonella strains were diluted to a final concentration of 2×10^5 cfu ml^−1 and were exposed to nisin A, S29G and S29A at a concentration of 33 mg/L. Following incubation at 37°C for 1 hour, bacterial growth was monitored through plate counts.

Where “and” joins values, the source holds several entries; their conditions need not be identical. Equal entries are not always repeated. Ends that are not written are not given here.

Turning to “S29G: bioengineered nisin A derivative with a serine to glycine change at position 29 (ITSISLCTPGCKTGALMGCNMKTATCHCGIHVSK; thioether (positions not given here); not fully specified (residues 2, 5, 33, bridges); UniProt P13068 24-57, looked up, variant S29G)”, the “Zone Diameter (mm)” value in the assay on Lactococcus lactis HP (agarose (1%) GM17 assay, 10 µl cell-free supernatant of overnight producing culture in 4.6 mm wells, L. lactis HP, 30°C) was 15.4±0.5 mm. For the same substance, the “% difference (zone relative to wild type)” value in the assay on Lactococcus lactis HP (agarose assay of supernatants against L. lactis HP, wild type serine = 100) is 101%. Further, the MIC in the assay with L. lactis HP was 0.1 mg/L and 0.031 µM; with L. lactis MG1363 it was 0.4 mg/L and 0.125 µM; in the assay on L. monocytogenes 10403S, 6.28 mg/L and 1.875 µM; in the assay with L. monocytogenes LO28, 6.28 mg/L and 1.875 µM; in the assay with S. aureus RF122, 0.52 mg/L and 0.156 µM; in assay [1], 0.26 mg/L and 0.078 µM. For the same substance, the MIC in assay [2] is 0.26 mg/L and 0.078 µM; in [3] it was 2 mg/L and 0.625 µM; in the assay on B. cereus DPC 6088 it was 4.19 mg/L and 1.25 µM; in the assay with B. cereus DPC 6089, 4.19 mg/L and 1.25 µM; in the assay on E. durans 5133 it was 0.26 mg/L and 0.078 µM; against C. sakazakii DPC 6440 [7], 6.28 mg/L and 1.875 µM. For the same substance, the MIC against E. coli 0157-H7 [8] was 25.14 mg/L and 7.5 µM. Further, the “Zone of inhibition, agarose gel diffusion” value was 10.79±0.16 mm in the assay with C. sakazakii DPC 6440 [4] (C. sakazakii DPC 6440, mean of triplicate assays); 11.10±0.05 mm in the assay on E. coli 0157-H7 [5] (E. coli 0157-H7, mean of triplicate assays); 10.94±0.24 mm in assay [6] (Salmonella Typhimurium UK1, mean of triplicate assays). For the same substance, the “Zone as % wt” value was determined as 110 % wt with C. sakazakii DPC 6440 [4] (C. sakazakii DPC 6440, relative to nisin A); 113 % wt in the assay on E. coli 0157-H7 [5] (E. coli 0157-H7, relative to nisin A); 111 % wt in assay [6] (Salmonella Typhimurium UK1, relative to nisin A). The “Killing compared with nisin A (plate counts)” value in the assay with C. sakazakii DPC 6440 [9] was “greater activity than wildtype nisin A”.
